Reference: US10736932B2, “Small molecule Ras inhibitors” (Ohio State Innovation Foundation, priority 2014, dated 2020)
Square brackets hold non-standard residues; d marks the D form. Side chains are listed from the residue outwards. Peptide text beside a SMILES is read from it. * marks the point of attachment. Phe(3,4-F2) = N[C@@H](Cc1ccc(F)c(F)c1)C(=O)O; Phe(4-Cl) = N[C@@H](Cc1ccc(Cl)cc1)C(=O)O; Phe(4-F) = N[C@@H](Cc1ccc(F)cc1)C(=O)O; 2Nal = N[C@@H](Cc1ccc2ccccc2c1)C(=O)O; d2Nal = N[C@H](Cc1ccc2ccccc2c1)C(=O)O; Tle = CC(C)(C)[C@H](N)C(=O)O; dNle = CCCC[C@@H](N)C(=O)O; X3 = N#Cc1ccc(C(=O)*)cc1; Dap = NC[C@H](N)C(=O)O

What follows are compounds tested against T1, K-Ras / Raf RBD interaction (Homo sapiens, UniProt P01116, G12V) (assay: HTRF assay, inhibition of Ras-Raf RBD interaction). Conditions: not given.
T1 construct: The G12V mutant K-Ras (amino acids 1-185) was recombinantly fused; GST (N, cleaved yes); made in house; host or cells: Escherichia coli BL21
Type: binding
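Also: HTRF signal read after overnight incubation of the assay plate at 4 °C.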

| SMILES | IC50 [nM] |
| --- | --- |
| CCCC[C@H]1NC(=O)[C@H](Cc2ccc(F)cc2)NC(=O)[C@H](CCCNC(=N)N)NC(=O)[C@@H](Cc2ccc3ccccc3c2)NC(=O)[C@H](CCCNC(=N)N)NC(=O)[C@H](CCCNC(=N)N)NC(=O)[C@H](CCC(=O)N[C@@H](CCCCN)C(N)=O)NC(=O)[C@@H](C)NC(=O)[C@H](C)NC(=O)[C@H](Cc2c[nH]c3ccccc23)NC(=O)[C@@H](CO)NC1=O [Cyclorasin 9A(Thr9A), (Arg-Arg-nal-Arg-Fpa-nle-ser-Trp-Ala-ala-Gln)-Lys] (cyclo(A[dA]E([Lys-NH2])RR[d2Nal]R[Phe(4-F)][dNle][dS]W)) | > 10000 |
| CCCC[C@H]1NC(=O)[C@H](Cc2ccc(Cl)cc2)NC(=O)[C@H](CCCNC(=N)N)NC(=O)[C@@H](Cc2ccc3ccccc3c2)NC(=O)[C@H](CCCNC(=N)N)NC(=O)[C@H](CCCNC(=N)N)NC(=O)[C@H](CCCNC(=N)N)NC(=O)[C@@H](C)NC(=O)[C@H]([C@@H](C)O)NC(=O)[C@H](Cc2c[nH]c3ccccc23)NC(=O)[C@H](CCC(N)=O)NC1=O [Cyclorasin 9A42, (Trp-Thr-ala-Arg-Arg-Arg-nal-Arg-Phe(4-chloro)-nle-Gln)] (cyclo(WT[dA]RRR[d2Nal]R[Phe(4-Cl)][dNle]Q)) | 130 ± 20 |
| CCCC[C@H]1NC(=O)[C@H](Cc2ccc(F)c(F)c2)NC(=O)[C@H](CCCNC(=N)N)NC(=O)[C@@H](Cc2ccc3ccccc3c2)NC(=O)[C@H](CCCNC(=N)N)NC(=O)[C@H](CCCNC(=N)N)NC(=O)[C@H](CCCNC(=N)N)NC(=O)[C@@H](C(C)C)NC(=O)[C@H](C(C)(C)C)NC(=O)[C@H](Cc2c[nH]c3ccccc23)NC(=O)[C@H](CCC(N)=O)NC1=O [Cyclorasin 9A54, (Trp-Tle-val-Arg-Arg-Arg-nal-Arg-Phe(3,4-difluoro)-nle-Gln)] (cyclo(W[Tle][dV]RRR[d2Nal]R[Phe(3,4-F2)][dNle]Q)) | 18 |
| CCCC[C@H]1NC(=O)[C@H](Cc2ccc(F)cc2)NC(=O)[C@H](CCCNC(=N)N)NC(=O)[C@H](Cc2ccc3ccccc3c2)NC(=O)[C@H](CCCNC(=N)N)NC(=O)[C@H](CCCNC(=N)N)NC(=O)[C@H](CCCNC(=N)N)NC(=O)[C@@H](C)NC(=O)[C@H]([C@@H](C)O)NC(=O)[C@H](Cc2c[nH]c3ccccc23)NC(=O)[C@H](CCC(N)=O)NC1=O [Cyclorasin 9A55, (Trp-Thr-ala-Arg-Arg-Arg-Nal-Arg-Fpa-nle-Gln)] (cyclo(WT[dA]RRR[2Nal]R[Phe(4-F)][dNle]Q)) | 940 ± 280 |
| CCCC[C@H]1NC(=O)[C@H](Cc2ccc(F)cc2)NC(=O)[C@H](CCCNC(=N)N)NC(=O)[C@@H](Cc2ccc3ccccc3c2)NC(=O)[C@H](CCCNC(=N)N)NC(=O)[C@H](CCCNC(=N)N)NC(=O)[C@@H](CCCNC(=N)N)NC(=O)[C@@H](C)NC(=O)[C@H](C(C)C)NC(=O)[C@H](Cc2c[nH]c3ccccc23)NC(=O)[C@H](CCC(N)=O)NC1=O [Cyclorasin 9A18, (Trp-Val-ala-arg-Arg-Arg-nal-Arg-Fpa-nle-Gln)] (cyclo(WV[dA][dR]RR[d2Nal]R[Phe(4-F)][dNle]Q)) | 230 ± 110 |
| CCCC[C@H]1NC(=O)[C@H](CNC(=O)c2ccc(C#N)cc2)NC(=O)[C@H](CCCNC(=N)N)NC(=O)[C@@H](Cc2ccc3ccccc3c2)NC(=O)[C@H](CCCNC(=N)N)NC(=O)[C@H](CCCNC(=N)N)NC(=O)[C@H](CCCNC(=N)N)NC(=O)[C@@H](C)NC(=O)[C@H](C(C)(C)C)NC(=O)[C@H](Cc2c[nH]c3ccccc23)NC(=O)[C@H](CCC(N)=O)NC1=O [Cyclorasin 9A44c, (Trp-Tle-ala-Arg-Arg-Arg-nal-Arg-Dap(4-cyanobenzoyl)-nle-Gln)] (cyclo(W[Tle][dA]RRR[d2Nal]R[Dap](X3)[dNle]Q)) | 150 ± 50 |
| C[C@H]1NC(=O)[C@H](Cc2ccc(F)cc2)NC(=O)[C@H](CCCNC(=N)N)NC(=O)[C@@H](Cc2ccc3ccccc3c2)NC(=O)[C@H](CCCNC(=N)N)NC(=O)[C@H](CCCNC(=N)N)NC(=O)[C@H](CCC(=O)N[C@@H](CCCCN)C(N)=O)NC(=O)[C@@H](C)NC(=O)[C@H]([C@@H](C)O)NC(=O)[C@H](Cc2c[nH]c3ccccc23)NC(=O)[C@@H](CO)NC1=O [Cyclorasin 9A(nle6dA), (Arg-Arg-nal-Arg-Fpa-ala-ser-Trp-Thr-ala-Gln)-Lys] (cyclo(RR[d2Nal]R[Phe(4-F)][dA][dS]WT[dA]E([Lys-NH2]))) | 7700 ± 5600 |
| CC(C)[C@H]1NC(=O)[C@H](Cc2ccc(F)cc2)NC(=O)[C@H](CCCNC(=N)N)NC(=O)[C@@H](Cc2ccc3ccccc3c2)NC(=O)[C@H](CCCNC(=N)N)NC(=O)[C@H](CCCNC(=N)N)NC(=O)[C@@H](CCCNC(=N)N)NC(=O)[C@@H](C)NC(=O)[C@H]([C@@H](C)O)NC(=O)[C@H](Cc2c[nH]c3ccccc23)NC(=O)[C@H](CCC(N)=O)NC1=O [Cyclorasin 9A11, (Trp-Thr-ala-arg-Arg-Arg-nal-Arg-Fpa-val-Gln)] (cyclo(WT[dA][dR]RR[d2Nal]R[Phe(4-F)][dV]Q)) | 310 ± 80 |
| CCCC[C@H]1NC(=O)[C@H](Cc2ccc(F)cc2)NC(=O)[C@H](CCCNC(=N)N)NC(=O)[C@@H](Cc2ccc3ccccc3c2)NC(=O)[C@H](CCCNC(=N)N)NC(=O)[C@H](CCCNC(=N)N)NC(=O)[C@H](CCCNC(=N)N)NC(=O)[C@@H](C(C)C)NC(=O)[C@H]([C@@H](C)O)NC(=O)[C@H](Cc2c[nH]c3ccccc23)NC(=O)[C@H](CCC(N)=O)NC1=O [Cyclorasin 9A47, (Trp-Thr-val-Arg-Arg-Arg-nal-Arg-Fpa-nle-Gln)] (cyclo(WT[dV]RRR[d2Nal]R[Phe(4-F)][dNle]Q)) | 86 ± 11 |
| CCCC[C@H]1NC(=O)[C@H](Cc2ccc(F)cc2)NC(=O)[C@H](CCCNC(=N)N)NC(=O)[C@@H](Cc2ccc3ccccc3c2)NC(=O)[C@H](CCCNC(=N)N)NC(=O)[C@H](CCCNC(=N)N)NC(=O)[C@@H](CCCNC(=N)N)NC(=O)[C@@H](C(C)C)NC(=O)[C@H]([C@@H](C)O)NC(=O)[C@H](Cc2c[nH]c3ccccc23)NC(=O)[C@H](CCC(N)=O)NC1=O [Cyclorasin 9A14, (Trp-Thr-val-arg-Arg-Arg-nal-Arg-Fpa-nle-Gln)] (cyclo(WT[dV][dR]RR[d2Nal]R[Phe(4-F)][dNle]Q)) | 130 ± 70 |
| CCCC[C@H]1NC(=O)[C@H](Cc2ccc(F)cc2)NC(=O)[C@H](CCCNC(=N)N)NC(=O)[C@@H](Cc2ccc3ccccc3c2)NC(=O)[C@H](CCCNC(=N)N)NC(=O)[C@H](CCCNC(=N)N)NC(=O)[C@H](CCCNC(=N)N)NC(=O)[C@@H](C(C)C)NC(=O)[C@H](C(C)(C)C)NC(=O)[C@H](Cc2c[nH]c3ccccc23)NC(=O)[C@H](CCC(N)=O)NC1=O [Cyclorasin 9A48, (Trp-Tle-val-Arg-Arg-Arg-nal-Arg-Fpa-nle-Gln)] (cyclo(W[Tle][dV]RRR[d2Nal]R[Phe(4-F)][dNle]Q)) | 48 ± 3 |
| C[C@H]1NC(=O)[C@H]([C@@H](C)O)NC(=O)[C@H](Cc2c[nH]c3ccccc23)NC(=O)[C@H](CCC(N)=O)NC(=O)[C@@H](CCCNC(=N)N)NC(=O)[C@H](Cc2ccc(F)cc2)NC(=O)[C@H](CCCNC(=N)N)NC(=O)[C@@H](Cc2ccc3ccccc3c2)NC(=O)[C@H](CCCNC(=N)N)NC(=O)[C@H](CCCNC(=N)N)NC(=O)[C@H](CCCNC(=N)N)NC1=O [Cyclorasin 9A45, (Trp-Thr-ala-Arg-Arg-Arg-nal-Arg-Fpa-arg-Gln)] (cyclo(WT[dA]RRR[d2Nal]R[Phe(4-F)][dR]Q)) | 36 ± 4 |
| CC(C)C[C@H]1NC(=O)[C@H](Cc2ccc(F)cc2)NC(=O)[C@H](CCCNC(=N)N)NC(=O)[C@@H](Cc2ccc3ccccc3c2)NC(=O)[C@H](CCCNC(=N)N)NC(=O)[C@H](CCCNC(=N)N)NC(=O)[C@@H](CCCNC(=N)N)NC(=O)[C@@H](C)NC(=O)[C@H]([C@@H](C)O)NC(=O)[C@H](Cc2c[nH]c3ccccc23)NC(=O)[C@H](CCC(N)=O)NC1=O [Cyclorasin 9A10, (Trp-Thr-ala-arg-Arg-Arg-nal-Arg-Fpa-leu-Gln)] (cyclo(WT[dA][dR]RR[d2Nal]R[Phe(4-F)][dL]Q)) | 240 ± 130 |
| CCCC[C@H]1NC(=O)[C@H](Cc2ccc(F)cc2)NC(=O)[C@H](C)NC(=O)[C@@H](Cc2ccc3ccccc3c2)NC(=O)[C@H](CCCNC(=N)N)NC(=O)[C@H](CCCNC(=N)N)NC(=O)[C@H](CCC(=O)N[C@@H](CCCCN)C(N)=O)NC(=O)[C@@H](C)NC(=O)[C@H]([C@@H](C)O)NC(=O)[C@H](Cc2c[nH]c3ccccc23)NC(=O)[C@@H](CO)NC1=O [Cyclorasin 9A(Arg4A), (Arg-Arg-nal-Ala-Fpa-nle-ser-Trp-Thr-ala-Gln)-Lys] (cyclo(RR[d2Nal]A[Phe(4-F)][dNle][dS]WT[dA]E([Lys-NH2]))) | 390 ± 280 |
| CCCC[C@H]1NC(=O)[C@H](C)NC(=O)[C@H](CCCNC(=N)N)NC(=O)[C@@H](Cc2ccc3ccccc3c2)NC(=O)[C@H](CCCNC(=N)N)NC(=O)[C@H](CCCNC(=N)N)NC(=O)[C@H](CCC(=O)N[C@@H](CCCCN)C(N)=O)NC(=O)[C@@H](C)NC(=O)[C@H]([C@@H](C)O)NC(=O)[C@H](Cc2c[nH]c3ccccc23)NC(=O)[C@@H](CO)NC1=O [Cyclorasin 9A(Fpa5A), (Arg-Arg-nal-Arg-Ala-nle-ser-Trp-Thr-ala-Gln)-Lys] (cyclo(RR[d2Nal]RA[dNle][dS]WT[dA]E([Lys-NH2]))) | > 10000 |
| CCCC[C@H]1NC(=O)[C@H](Cc2ccc(F)cc2)NC(=O)[C@H](CCCNC(=N)N)NC(=O)[C@@H](Cc2ccc3ccccc3c2)NC(=O)[C@H](CCCNC(=N)N)NC(=O)[C@H](CCCNC(=N)N)NC(=O)[C@@H](CCCNC(=N)N)NC(=O)[C@@H](C)NC(=O)[C@H](CO)NC(=O)[C@H](Cc2c[nH]c3ccccc23)NC(=O)[C@H](CCC(N)=O)NC1=O [Cyclorasin 9A17, (Trp-Ser-ala-arg-Arg-Arg-nal-Arg-Fpa-nle-Gln)] (cyclo(WS[dA][dR]RR[d2Nal]R[Phe(4-F)][dNle]Q)) | 720 ± 310 |
| CCCC[C@H]1NC(=O)[C@H](Cc2ccc(F)cc2)NC(=O)[C@H](CCCNC(=N)N)NC(=O)[C@@H](Cc2ccc3ccccc3c2)NC(=O)[C@H](CCCNC(=N)N)NC(=O)[C@H](CCCNC(=N)N)NC(=O)[C@H](CCC(=O)N[C@@H](CCCCN)C(N)=O)NC(=O)[C@@H](C)NC(=O)[C@H]([C@@H](C)O)NC(=O)[C@H](C)NC(=O)[C@@H](CO)NC1=O [Cyclorasin 9A(Trp8A), (Arg-Arg-nal-Arg-Fpa-nle-ser-Ala-Thr-ala-Gln)-Lys] (cyclo(RR[d2Nal]R[Phe(4-F)][dNle][dS]AT[dA]E([Lys-NH2]))) | 7200 ± 1000 |

Same assay, conditions: relative to parent 9A5/9A6

| SMILES | increase in Ras binding affinity upon residue substitution [fold] |
| --- | --- |
| CCCC[C@H]1NC(=O)[C@H](Cc2ccc(F)cc2)NC(=O)[C@H](CCCNC(=N)N)NC(=O)[C@@H](Cc2ccc3ccccc3c2)NC(=O)[C@H](CCCNC(=N)N)NC(=O)[C@H](CCCNC(=N)N)NC(=O)[C@@H](CCCNC(=N)N)NC(=O)[C@@H](C(C)C)NC(=O)[C@H]([C@@H](C)O)NC(=O)[C@H](Cc2c[nH]c3ccccc23)NC(=O)[C@H](CCC(N)=O)NC1=O [Cyclorasin 9A14, (Trp-Thr-val-arg-Arg-Arg-nal-Arg-Fpa-nle-Gln)] (cyclo(WT[dV][dR]RR[d2Nal]R[Phe(4-F)][dNle]Q)) | ~2 |
| C[C@H]1NC(=O)[C@H]([C@@H](C)O)NC(=O)[C@H](Cc2c[nH]c3ccccc23)NC(=O)[C@H](CCC(N)=O)NC(=O)[C@@H](CCCNC(=N)N)NC(=O)[C@H](Cc2ccc(F)cc2)NC(=O)[C@H](CCCNC(=N)N)NC(=O)[C@@H](Cc2ccc3ccccc3c2)NC(=O)[C@H](CCCNC(=N)N)NC(=O)[C@H](CCCNC(=N)N)NC(=O)[C@H](CCCNC(=N)N)NC1=O [Cyclorasin 9A45, (Trp-Thr-ala-Arg-Arg-Arg-nal-Arg-Fpa-arg-Gln)] (cyclo(WT[dA]RRR[d2Nal]R[Phe(4-F)][dR]Q)) | 4 |
